Data as given in patent US20040097420A1, “Proteasome regulation of NF-kB activity” (Harvard College, priority 1994, published 2004).
Non-standard residues stand in square brackets, D forms with d. Residues, ends and D or L forms follow the SMILES beside them. *: point of attachment. Nle = CCCC[C@H](N)C(=O)O; Cbz = O=C(OCc1ccccc1)*

Experiments:
[1] = target: T1, 20S Proteasome (Oryctolagus cuniculus, UniProt G1T4Q9); test: Inhibition of the 20S proteasome (kinetic experiments, Ki); assay type: biochemical, Rabbit; design: Ki 20 S; substrate Suc-LLVY-AMC; details: Rabbit muscle, SDS-activated; substrate Suc-LLVY-AMC
T1 sequence (G1T4Q9 1-263): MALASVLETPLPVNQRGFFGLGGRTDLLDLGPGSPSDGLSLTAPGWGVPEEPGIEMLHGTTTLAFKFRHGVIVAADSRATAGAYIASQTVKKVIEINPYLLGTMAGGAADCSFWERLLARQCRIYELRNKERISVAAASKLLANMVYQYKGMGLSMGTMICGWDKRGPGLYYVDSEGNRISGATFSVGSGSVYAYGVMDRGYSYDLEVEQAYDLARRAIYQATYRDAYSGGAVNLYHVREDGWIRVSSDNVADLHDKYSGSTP
Description: (§1) Tables I-III summarize results from kinetic experiments that measured the inhibition of the 20S and 26S proteasomes, as well as cathepsin B and calpain. In these tables, Ki values are reported, which are dissociation constants for the equilibrium that is established when enzyme and inhibitor interact to form the enzyme:inhibitor complex.
(§2) The substances and assay conditions are briefly summarized in the footnotes to Table I. MG 101 and MG 102, also known as Calpain Inhibitor I and II, were purchased from Calbiochem as catalogue products.
Table V summarizes data for the inhibition of the 20S proteasome by various tripeptide aldehyde inhibitors.

[2] = target: T1, 20S Proteasome; test: MG 101 inhibition of muscle 20S proteasome (Table IV); assay type: biochemical; details: enzyme preparation: 20S Proteasome (muscle)
[3] = target: T2, 26S Proteasome Complex (Oryctolagus cuniculus, UniProt G1T4Q9); test: MG 101 inhibition of muscle 26S proteasome complex (Table IV); assay type: biochemical; details: enzyme preparation: 26S Proteasome Complex (muscle)
T2 sequence (G1T4Q9 1-263): T1 sequence (G1T4Q9 1-263)

[4] = target: T3, 20S Proteasome + Muscle 180 kDa Activator (Oryctolagus cuniculus, UniProt G1T4Q9); test: MG 101 inhibition of 20S proteasome + muscle 180 kDa activator (Table IV); assay type: biochemical; details: enzyme preparation: 20S Proteasome + Muscle 180 kDa Activator
T3 sequence (G1T4Q9 1-263): T1 sequence (G1T4Q9 1-263)

[5] = target: T4, 20S Proteasome ± SDS (Oryctolagus cuniculus, UniProt G1T4Q9); test: MG 101 inhibition of 20S proteasome with SDS (Table IV); assay type: biochemical; details: enzyme preparation: 20S Proteasome ± SDS
T4 sequence (G1T4Q9 1-263): T1 sequence (G1T4Q9 1-263)

[6] = target: calpain, 80 kD catalytic subunit; test: Inhibition of calpain (Ki); assay type: biochemical; details: Rabbit muscle, substrate Suc-LLVY-AMC, [CaCl2] = 1 mM, [DTT] = 2 mM, pH 7.8, 20° C.
Description: as §1

[7] = target: T5, chymotrypsin-like activity of the proteasome (UniProt Q32KL2); details: slow binding inhibitors; Vinitsky et al., Biochemistry 31:9421-9428 (1992); cited from earlier work
T5 sequence (Q32KL2 1-263): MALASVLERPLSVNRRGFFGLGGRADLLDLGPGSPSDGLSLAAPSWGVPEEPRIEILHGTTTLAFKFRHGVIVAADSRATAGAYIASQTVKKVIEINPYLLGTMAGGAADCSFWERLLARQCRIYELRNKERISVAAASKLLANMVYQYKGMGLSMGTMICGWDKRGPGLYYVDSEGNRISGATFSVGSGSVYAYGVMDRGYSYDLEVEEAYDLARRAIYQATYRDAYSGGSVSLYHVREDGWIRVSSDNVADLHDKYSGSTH

[8] = target: T6, cathepsin B (Bos taurus, UniProt P07688); test: Inhibition of cathepsin B (Ki); assay type: biochemical; details: Bovine spleen; substrate Z-RR-AMC; [DTT] = 2 mM, [EDTA] = 5 mM, pH 5.5, 37° C.; read-out: Ki Cat B
T6 construct: Bovine spleen; Substrate: Z-RR-AMC; from tissue; host or cells: bovine spleen
Description: as §1

[9] = target: T7, 26S proteasome (Oryctolagus cuniculus, UniProt G1T4Q9); test: Inhibition of the 26S proteasome (kinetic experiments, Ki); assay type: biochemical; details: Rabbit muscle; substrate Suc-LLVY-AMC; [Mg:ATP] = 2 mM
T7 sequence (G1T4Q9 1-263): T1 sequence (G1T4Q9 1-263)
Description: as §1, §2

[10] = tested on: PC12 cells; details: Tsubuki et al. (1993); cited from earlier work
[11] = tested on: p60Tth processing by proteasome; test: In vitro processing of p60Tth with purified proteasomes / extract; assay type: biochemical; details: processing reaction with purified 20/26S proteasomes or fraction II and Pr−(II) extract
Experimental: The p60Tth precursor (or p105) was translated in wheat germ extract. The substrate protein was mixed with HeLa cell cytoplasmic extract (S100) in a processing buffer containing 12 mM Tris, pH 7.5, 60 mM KCl, 20 mM creatine phosphate, 3.5 mM MgCl2 and 1 mM ATP. After incubation at 30° C for one hour, the reaction mixtures were subjected to immunoprecipitation with anti-p50 Ab and the proteins were resolved by SDS-PAGE. In the Apyrase treated sample, the p60 was incubated with 10 U of enzyme at 37° C. for 30 minutes to inactivate residual ATP in the wheat germ extract before adding the HeLa cell S100.
Increasing amounts of purified 20/26S proteasomes or a proteasome-enriched fraction from reticulocyte lysate, fraction II, were added alone or were combined with Pr^−(II) extract in a processing reaction (see Example 4). In addition, processing was inhibited by ATPγS, a non-hydrolyzable analogue of ATP that allows ubiquitination but inhibits proteasome function (lanes 3-5).

Row | Compound | Ki [1] [µM] | Ki [6] [µM] | Ki [7] [µM] | Ki [8] [µM] | Ki [9] [µM] | further results
1 | CCCC[C@@H](C=O)NC(=O)[C@H](CC(C)C)NC(=O)[C@H](CC(C)C)NC(C)=O [MG 101, Ac-Leu-Leu-Nle-H] (Ac-Leu-Leu-[Nle]-aldehyde) | 0.14 | 0.005 | 5.7 | 0.006 | 1 | Ki [2]: 7 µM; Ki [3]: 3 µM; Ki [4]: 0.6 µM; Ki [5]: 0.14 µM
2 | CC(C)C[C@@H](C=O)NC(=O)[C@H](CC(C)C)NC(=O)[C@H](CC(C)C)NC(=O)OCc1ccccc1 [benzyloxycarbonyl(Z)-Leu-Leu-leucinal, Z-L-Leucine-L-Leucine-L-Leucinal] (Cbz-Leu-Leu-Leu-aldehyde) | – | – | – | – | – | optimal concentration initiating neurite outgrowth [10]: 30 nM
3 | CC(C)C[C@H](NC(=O)OCc1ccccc1)C(=O)N[C@@H](CC(C)C)C(=O)N[C@H](C=O)Cc1ccccc1 [MG 110, Z-Leu-Leu-Phe-H] (Cbz-Leu-Leu-Phe-aldehyde) | 0.048 | 0.062 | 0.46 | 0.1 | 0.18 | –
4 | CCOC(=O)C(=O)[C@H](Cc1ccccc1)NC(=O)[C@H](CC(C)C)NC(=O)[C@H](CC(C)C)NC(=O)OCc1ccccc1 [Z-Leu-Leu-Phe-COOEt] | – | – | 53 | – | – | –
5 | Nc1ncnc2c1ncn2[C@@H]1O[C@H](COP(=O)(O)OP(=O)(O)OP(O)(O)=S)[C@@H](O)[C@H]1O [ATPγS] | – | – | – | – | – | effect on p60Tth processing in vitro [11]: inhibited
6 | CSCC[C@@H](C=O)NC(=O)[C@H](CC(C)C)NC(=O)[C@H](CC(C)C)NC(C)=O [Ac-LLM-H, N-acetyl-Leu-Leu-methioninal] (Ac-Leu-Leu-Met-aldehyde) | – | – | 33 | – | – | –
